Experimental data reported in patent publication US9296778B2, “3′,5′-cyclic phosphate prodrugs for HCV infection” (Idenix Pharmaceuticals, Inc., priority 2012, dated 2016).
Like-named read-outs stand apart in the source and are kept apart here.

Columns and labels:
HCV genotype 1b replicon = assay: HCV Replicon Assay; assay type: cell-based; settings: Zluc cells (Huh-7-derived, HCV genotype 1b replicon, luciferase reporter), 72 hours, read-out: HCV Replicon EC50
Procedure: Huh-7-derived cell line (Zluc) that harbors an HCV genotype 1b replicon and a luciferase reporter gene was grown in Dulbecco's Modified Eagle Medium (DMEM) supplemented with 10% fetal bovine serum, 2 mM GlutaMAX, 1% MEM nonessential amino acids, 100 IU/mL penicillin, 100 μg/mL streptomycin, and 0.5 mg/mL Geneticin® (G418). For dose response testing the cells were seeded in 96-well plates at 7.5×10^3 cells per well in a volume of 50 μL, and incubated at 37° C./5% CO2. Drug solutions were made up freshly in Huh-7 media as 2× stocks. Ten additional 5-fold dilutions were prepared from these stocks in DMEM without G418. At least three hours after Zluc cells were seeded, drug treatment was initiated by adding 50 μL of drug dilutions to the plates in duplicate. Final concentrations of drug ranged from 100 μM to […]. Cells were then incubated at 37° C./5% CO2. Alternatively, compounds were tested at two concentrations (1 μM and 10 μM). […] For this, media was removed from the plates via gentle tapping. Fifty microliters of ONE-glo luciferase assay reagent was added to each well. The plates were shaken gently for 3 min at room temperature and luminescence was measured on a Victor^3 V 1420 multilabel counter (Perkin Elmer) with a 1 second read time using a 700 nm cut-off filter. The EC50 values were calculated from dose response curves from the resulting best-fit equations determined by Microsoft Excel and XLfit 4.1 software. When screening at two fixed concentrations, the results were expressed as % inhibition at 1 μM and 10 μM.

[1] = Stability in simulated intestinal fluid; assay type: in vitro ADME; settings: 100 μM, 2 hours at 37° C., percent of the peak area at time zero
Procedure: Simulated gastric and intestinal fluids containing pepsin and pancreatin respectively were prepared according to the U.S. Pharmacopoeia USP291 procedure (www.pharmacopeia.cn/v29240/usp29nf24s0_ris1s126.html). Compounds (final concentration 100 μM) were incubated in duplicate in the appropriate fluid for 2 hours at 37° C. The samples were quenched with 200 μl cold acetonitrile, vortexed for 30 seconds and then centrifuged at 16,100 g for 10 min. The supernatants were analyzed by HPLC on a C-18 column with UV detection at 252 nm. The time 0 samples were prepared by adding SGF or SIF fluid to the quenching solvent followed by the test compound. Stability of the compounds was determined by peak area of the test compounds after incubation and calculated as percent of the peak area observed at time zero.

[2] = Stability in fresh human whole blood; assay type: in vitro ADME; settings: 0.5 μM, percent unchanged test compound
Procedure: (§1) Stability of compounds were determined in fresh human whole blood with K2EDTA as the anticoagulant (stored refrigerated at 2-8° C. and used within 7 days of receipt). The experiment was conducted with three replicates for each time point. Whole blood, pre-incubated at 37° C. for 10-15 minutes, was fortified with a solution of test compound for a final concentration of 0.5 μM and mixed for 30 sec. At intervals (0, 0.5, 1 and 2 hr), three 50 μL aliquots were combined with 200 μL (each) of an ice-cold solution of the internal standard (carbutamide 500 ng/mL in acetonitrile). The samples were vortexed for 30 sec and then centrifuged at 16,100 g for 5 min. The supernatant was analyzed by LC-MS/MS. The MS peak area ratio of the test compounds versus the internal standard was calculated and percent unchanged test compound was calculated for each time point using this ratio.

fresh human hepatocytes = assay: Release of active metabolite in fresh human hepatocytes; assay type: in vitro ADME; settings: 10 μM compound; for FHH TP Cmax: fresh human hepatocytes; for FHH TP AUC: fresh human hepatocytes, 6, 24 and 48 hours
Procedure: (§2) Plates of fresh human and mouse hepatocytes were obtained on ice. The medium was removed and replaced with hepatocyte culture medium (William's E supplemented with penicillin-streptomycin, 1% L-glutamine, 1% insulin-transferrin-selenium and 0.1 μM Dexamethasone (Invitrogen) or with Invitro GRO HI medium complemented with Torpedo antibiotics (Celsis)). Cells were left overnight in an incubator at 37° C. to acclimatize to culture and the medium.
(§3) Hepatocyte incubations were conducted at a final volume of 0.5 mL hepatocyte culture medium/well (0.8 million cells/well for human and 0.5 million cells/well for mouse; 12 well plate no overlay, collagen coat). Culture medium from overnight incubation of cells was removed and replaced with fresh medium, pre-warmed to 37° C., containing 10 μM of test compound from a stock solution in DMSO (final DMSO concentration was 0.1%). At each specific time point, incubation medium was removed and cell monolayers were carefully washed two times with ice-cold PBS. Following the last wash, all PBS was carefully removed and 1.0 mL of extraction solution (ice-cold 70% methanol/30% water) added. Cells were scraped off and suspended in the extraction solution, transferred to 2 mL polypropylene microfuge tubes and intracellular contents extracted overnight at −20° C.
(§4) After the overnight treatment the cellular extracts were prepared by centrifugation at 16,000×g for 10 min to remove cellular debris. The remaining sample was then dried using a refrigerated centrivap concentrator. Dry extracts were reconstituted in 1000 μL of HPLC-grade water and centrifuged at 16,000×g for 10 min. Aliquots (100 μL each) of the supernatant were transferred into a 96 well plate and internal standard (4 ng/mL final concentration) was added as the internal standard (IS) for LC-MS/MS analysis.
(§5) The incubation time points were 6, 24 and 48 hours for human hepatocytes and 1, 4, 8, 12 and 24 hours for mouse hepatocytes.

mouse hepatocytes = assay: Release of active metabolite in mouse hepatocytes; assay type: in vitro ADME; settings: 10 μM compound; for MsH Cmax: mouse hepatocytes; for MsH AUC: mouse hepatocytes, 1, 4, 8, 12 and 24 hours
Procedure: as §2, §3, §4, §5

[3] = Plasma pharmacokinetics following a single oral dose in CD-1 mice; assay type: in vivo; settings: single oral dose 25 mg/kg in PEG 200, CD-1 male mice; given at 1 μmol/kg; 25 mg/kg
Procedure: (§6) A single oral dose of test compound at 25 mg/kg in PEG 200 (dose volume 5 mL/kg) was administered to nine CD-1 male mice. Five untreated animals were used for the collection of control plasma and liver. Terminal plasma and liver samples were collected from three animals per time point at 4, 12 and 24 hours post dose. Liver specimens were collected from all animals immediately after the incision. Freezing forceps stored in liquid nitrogen were used to freeze the liver before excision.
Plasma samples were analyzed for 2′-methylguanosine (2′-MeG) by LC-MS/MS. The internal standard (IS) was 2′-MeG-D3. For protein precipitation and extraction, each plasma sample (50 μL) was treated with 500 μL of 0.2% formic acid in acetonitrile and 20 μL of the internal standard working solution. After vortexing and centrifugation, 500 μL of the sample extracts were transferred to a new plate, dried under N2 at ˜28° C. and reconstituted with 75 μL of 0.2% FA in water. The extracts were chromatographed on an Aquasil C18 column using a gradient system of 0.2% formic acid in water and acetonitrile. The analytes were detected and quantified by tandem mass spectrometry in positive ion mode on an MDS Sciex API5000 equipped with a Turbo Ionspray® interface. The calibration range was 0.500 (LLOQ) to 200 ng/mL in mouse plasma.

[4] = Liver pharmacokinetics following a single oral dose in CD-1 mice; assay type: in vivo; settings: single oral dose 25 mg/kg in PEG 200, CD-1 male mice; given at 1 μmol/kg; 25 mg/kg
Procedure: as §6
Liver samples were analyzed for the active species 2′-methylguanosine triphosphate (2′-MeGTP) by LC-MS/MS. 2′-MeGTP levels were assayed by homogenizing (on ice) a known weight of mouse liver with 4× volume of 0.95 M trichloroacetic acid (TCA). Internal standard solution was added to the homogenate followed by neutralization with 20% ammonium hydroxide solution and addition of 500 μL 1% formic acid. The tissue samples were extracted by weak anion exchange solid phase extraction (SPE). Post extraction, the eluates were evaporated under nitrogen, followed by reconstitution before injection onto the LC-MS/MS system. The samples were chromatographed on a Luna NH2 column using a gradient system of ammonium acetate (1 mM to 20 mM and pH 8.0 to pH 10.0) in water and acetonitrile (70:30). The analyte was detected and quantified by tandem mass spectrometry in positive ion mode on an API4000 equipped with a Turbo Ionspray® interface. The calibration range was 10 to 10000 pmol/mL in mouse liver homogenate (50 to 50000 pmol/g of mouse liver).

in vitro = settings: human, HCV Replicon CC50, Zluc cells, CellTiter-Blue
Stability in mouse blood = assay type: in vitro ADME; settings: on ice, percent unchanged test compound
Procedure: as §1
The stability in mouse blood was determined on ice at 0, 0.5 and 1 hr as herein.

Zluc cells = assay: cytotoxicity evaluation (CellTiter-Blue Cell Viability Assay); settings: read-out: HCV Replicon CC50; Zluc cells, CellTiter-Blue

Row | Structure (SMILES) | EC50 (HCV genotype 1b replicon; Hepatitis C virus, 72 h) [µM] | Stability SIF [1] [%] | Stability WB_Human (37° C.; 2 hr) [2] [%] | FHH TP Cmax (fresh human hepatocytes) [pmol/mill cells] | FHH TP AUC (fresh human hepatocytes) [pmol · hr/mill cells] | MsH Cmax (mouse hepatocytes) [pmol/mill cells] | MsH AUC (mouse hepatocytes) | Ms Plasma 2′-MeG AUC [3] [pmol · hr/mL at 1 μmol/kg] | Ms Plasma 2′-MeG Cmax [3] [pmol/mL at 1 μmol/kg] | Ms Liver 2′-MeGTP AUC [4] [pmol · hr/g at 1 μmol/kg] | CC50 (in vitro) [µM] | EC50 (HCV genotype 1b replicon) [µM] | Stability WB_Mouse (ice; 1 hr) (Stability in mouse blood) [%] | CC50 (Zluc cells) [µM]
1 | CCOc1nc(N)nc2c1ncn2[C@@H]1O[C@@H]2COP(=O)(OCCSC(=O)C(C)(C)CO)O[C@H]2[C@@]1(C)O (single isomer, unassigned) [Compound 4 Diastereomer 1] | < 0.25 | 105 | 82 | 120 | 4110 | 468 | 15078 pmol · hr/mill cells | 6.7 | 0.5 | 480 | < 50 |  |  | 
2 | CCOc1nc(N)nc2c1ncn2[C@@H]1O[C@@H]2COP(=O)(OCCSC(=O)C(C)(C)CO)O[C@H]2[C@@]1(C)F (single isomer, unassigned) [Compound 5 Diastereomer 2] |  | 77 | 46 | 448 | 9694 | 302 | 8713 pmol · hr/mill cells | 220 | 23 | 2600 |  | < 0.25 | 93 | > 50
3 | CC(C)OC(=O)CCCOP1(=O)OC[C@H]2O[C@@H](n3cnc4c(=O)[nH]c(N)nc43)[C@](C)(F)[C@@H]2O1 (single isomer, unassigned; diastereomer 2) [Compound 6 Diastereomer 2] |  |  |  |  |  |  | BLD^a | 54 | 7.2 | 530 |  | < 0.25 |  | > 50
4 | CC(C)OC(=O)CCCOP1(=O)OC[C@H]2O[C@@H](n3cnc4c(=O)[nH]c(N)nc43)[C@](C)(F)[C@@H]2O1 (single isomer, unassigned; diastereomer 1) [Compound 6 Diastereomer 1] |  |  |  |  |  |  | BLD^a | 13 | 1.3 | 35 |  | 1 to 10 |  | > 50
5 | CCOc1nc(N)nc2c1ncn2[C@@H]1O[C@@H]2COP(=O)(OCCCC(=O)OC(C)C)O[C@H]2[C@@]1(C)O (single isomer, unassigned) [Compound 1 Diastereomer 1] | 0.25 to 1 | 105 | 73 | 85 | 3425 |  |  | 9 | 0.56 | 560 | > 50 |  | 79 | 
